Assays:
HCT116 cells = test: Activity of inhibiting cell growth, HCT116 (sulforhodamine B); type: cell-based; settings: Homo sapiens, HCT-116, 72 h, cell growth inhibition, 3 days incubation
Method: (§1) Activity of Inhibiting Cell Growth
(§2) • (1) Method of cell culture
(§3) Clinical separative cancer cells HCT116 were cultured in Dulbecco′ modified Eagle's medium with 10% Fetal Bovine Serum, and clinical separative cancer cells MKN-1 were cultured in RPMI1640 medium added 10% Fetal Bovine Serum. Both cells were cultured at 37° C., under 5% CO2 and saturated steam. • (2) Determination of activity of inhibiting cell growth
(§4) The activity of inhibiting cell growth was measured using the modified method of Skehan's method (J. Natl. Cancer Inst. Vol.82, p.1107-1112, 1990), and so on. One hundred μL each of the culture medium containing 1×10^3 HCT116 or MKN-1 as living cells was pipetted to 96-well dish and cultured over night. […] Then, the diluted compounds or DMSO as the control, was added to the medium. One hundred μL of the medium added with the diluted drug solutions or DMSO was added to the cells cultured in 96-well dish, and was incubated for further 3 days.
(§5) To each well, 50 μL of trichloroacetic acid (50%) was added to fix the cells. The cells were stained using 0.4% sulforhodamine B. Sulforhodamine B was extracted with 10 mM tris buffer, and the optical density at 560 nm was compared with that of control at 450 nm.

MKN-1 cells = test: Activity of inhibiting cell growth, MKN-1 (sulforhodamine B); type: cell-based; settings: Homo sapiens, MKN-1, 72 h, cell growth inhibition, 3 days incubation
Method: as §1, §2, §3, §4, §5

cyclin D3-Cdk6 = target: T1, cyclin D3-Cdk6 (Homo sapiens, UniProt Q00534); test: Enzyme assay of cyclin D3-Cdk6 (33P-ATP phosphorylation of peptide substrate); type: biochemical; settings: 100 μM peptide substrate, 50 μM ATP, 30° C.
T1 construct: made in house; host or cells: Sf9 insect cells, baculovirus co-infection
Source text: • (1) Preparation of cyclin D1-Cdk6 and cyclin D3-Cdk6
As the same method of preparing cyclin D1-Cdk4, cDNA of Cdk6 and its activator cyclin D1 or D3 was recombined with baculovirus-expression vector to make recombinant baculovirus. This was co-infected to insect cell Sf9 to express an active complex of cyclin D1-Cdk6 or cyclin D3-Cdk6. The cells were recovered and solubilized and purified by HPLC columnchromatography. • (2) Enzyme assay of cyclin D1-Cdk6 and cyclin D3-Cdk6.
A peptide substrate used for cyclin D1-Cdk6 was synthetic peptide ([…] (SEQ ID No. 2) and that used for cyclin D3-Cdk6 was synthetic peptide ([…] (SEQ ID No. 3) (The EMBO J. vol. 15, p. 7060-7069, 1996).
The reaction was carried out using the modified procedure of Kitagawa's method (Oncogene, vol.7, p.1067-1074, 1992). The volume of the reaction solution was 21.1 μL. Purified cyclin D1-Cdk6 in R buffer and 400 μM peptide substrate or cyclin D3-Cdk6 and 100 μM pipetide substrate, unlabeled ATP (50 μM) and 1 μCi ATP labeled with γ-33P(2000-4000 Ci/mmole) were added to the reaction mixture. The mixture was incubated at 30° C. for 20 or 45 min. Then, 10 μL of phosphate buffer (350 mM) was added to stop the reaction. The peptide substrate was absorbed to P81 paper and its radioactivity was measured by a liquid scintillation counter. […]

cyclin D2-Cdk4 = cyclin D2-Cdk4 (Homo sapiens, UniProt P11802); test: Enzyme assay of cyclin D2-Cdk4 (33P-ATP phosphorylation of RB peptide substrate); type: biochemical; settings: Table 1, second value column (head repeats cyclin D1-Cdk4); 50 μM ATP, 100 μM peptide substrate, 30° C., 45 min
cyclin D2-Cdk4, sequence (P11802 whole entry): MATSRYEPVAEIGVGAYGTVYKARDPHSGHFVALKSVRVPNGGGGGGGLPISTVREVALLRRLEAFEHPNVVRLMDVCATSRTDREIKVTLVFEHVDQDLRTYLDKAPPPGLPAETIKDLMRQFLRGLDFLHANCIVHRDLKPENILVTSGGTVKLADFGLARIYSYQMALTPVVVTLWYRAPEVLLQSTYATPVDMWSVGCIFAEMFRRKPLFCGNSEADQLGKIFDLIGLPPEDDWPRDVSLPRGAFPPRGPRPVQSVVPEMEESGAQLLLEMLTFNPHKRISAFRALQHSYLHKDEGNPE
Source text: • (1) Preparation of cyclin D1-Cdk4 and cyclin D2-Cdk4
cDNA of Cdk4 and its activator cyclin D1 or D2 was subcloned into a baculovirus-expression vector to make recombinant baculovirus and then, they are co-infected to insect cell Sf9 to express an active complex of cyclin D1-Cdk4 or cyclin D2-Cdk4. The cells were recovered and solubilized and purified by HPLC columnchromatography (The the enzyme are EMBO J. vol.15, p.7060-7069, 1996). • (2) Enzyme assay of cyclin D1-Cdk4 and cyclin D2-Cdk4
The reaction was carried out using the modified procedure of Kitagawa's method (Oncogene, vol.7, p.1067-1074, 1992). The volume of the reaction solution was 21.1 μL. The reaction buffer (R buffer) consisted of 20 mM Tri-HCl buffer (pH7.4)/10 mM MgCl2/4.5 mM 2-mercaptoethanol/1 mM ethyleneglycolbis(β-aminoethylether)-N,N,N′,N′-tetracetic acid (EGTA). Purified cyclin D1-Cdk4 or D2-Cdk4, 100 μM peptide substrate, 50 μM unlabeled ATP and ATP labeled with 1 μCi γ-33P(2000-4000 Ci/mmole) were added to the reaction mixture. The mixture was incubated at 30° C. for 45 min. 10 μL of phosphate buffer (350 mM) was added to stop the reaction. The peptide substrate was absorbed to P81 paper and its radioactivity was measured by a liquid scintillation counter. ATP labeled with γ-33P was purchased from Daiich Chemicals, Ltd. […]

T1 sequence (Q00534 whole entry): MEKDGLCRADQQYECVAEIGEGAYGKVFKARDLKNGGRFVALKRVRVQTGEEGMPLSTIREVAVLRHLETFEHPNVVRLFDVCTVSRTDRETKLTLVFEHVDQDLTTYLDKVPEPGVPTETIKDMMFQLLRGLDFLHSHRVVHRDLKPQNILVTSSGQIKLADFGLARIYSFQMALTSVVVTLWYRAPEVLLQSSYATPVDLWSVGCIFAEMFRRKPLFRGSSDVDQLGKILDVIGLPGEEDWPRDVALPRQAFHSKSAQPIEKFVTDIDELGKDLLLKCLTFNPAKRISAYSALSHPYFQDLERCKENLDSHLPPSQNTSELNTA
T1 sequence (P30281 whole entry partner): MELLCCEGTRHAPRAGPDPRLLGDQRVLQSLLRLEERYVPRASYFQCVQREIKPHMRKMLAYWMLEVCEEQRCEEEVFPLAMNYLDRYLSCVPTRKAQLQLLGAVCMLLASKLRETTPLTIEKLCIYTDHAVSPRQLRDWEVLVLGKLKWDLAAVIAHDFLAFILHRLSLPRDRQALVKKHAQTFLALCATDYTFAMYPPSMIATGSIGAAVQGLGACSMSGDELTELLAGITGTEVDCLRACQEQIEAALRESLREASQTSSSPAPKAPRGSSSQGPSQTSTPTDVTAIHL

CN1CC[C@H](c2c(O)cc(O)c3c(=O)cc(-c4ccccc4Cl)oc23)[C@H](O)C1 (racemic) [(±)flavopiridol, flavopiridol]
IC50 (HCT116 cells): 0.15 µM | IC50 (MKN-1 cells): 0.87 µM

O=C(Nc1cc(C2CCN(Cc3ccccc3)C2)ccn1)Nc1cccc2c1C1CCCN1C2=O (stereo not shown) [Working Example No. 165, N′-(pyrrolidino[2,1-b]isoindolin-4-on-8-yl)-N-(4-(N-benzylpyrrolidin-3-yl)pyridin-2-yl)urea]
IC50 (cyclin D3-Cdk6): 0.013 µM | IC50 (cyclin D2-Cdk4): 0.016 µM

From US6958333B1, “Biarylurea derivatives” (Banyu Pharmaceutical Co., Ltd., priority 1999, dated 2005)
